Results reported in ChEMBL document CHEMBL4043190 (Bioorg Med Chem Lett, 2017).

Tests used:
[1] = Ratio of unbound drug concentration in IL-23/IL-1beta induced C57BL/6J mouse plasma at 30 mg/kg, po to EC50 for TYK2 (unknown origin) assessed as inhibition of IL-23 induced STAT3 phosphorylation
[2] = target: T1, Cyclin-dependent kinase 9 (Homo sapiens, UniProt P50750); conditions: 70 nM
[3] = target: Cyclin-dependent kinase 2 (Homo sapiens, UniProt P24941); assay: Inhibition of CDK2 (unknown origin)
[4] = Protein binding in mouse plasma; assay type: ADME, cell-free; conditions: read-out: PPB (converted)
Homo sapiens [5] = organism: Homo sapiens; assay: Selectivity ratio of EC50 for JAK2 (unknown origin) assessed as EPO-induced STAT5 phosphorylation to EC50 for TYK2 (unknown origin) assessed as IL-23-induced STAT3 phosphorylation
Mus musculus [6] = assay: Antiinflammatory activity in IMQ-induced BALB/c mouse model assessed as reduction in serum IL-17F production at 30 mg/kg, po bid for 5 days; assay type: functional; design: scale not given: the % may be the effect or the level left
[7] = target: Non-receptor tyrosine-protein kinase TYK2 (Homo sapiens, UniProt P29597); assay: Inhibition of TYK2 (unknown origin) by biochemical assay
Sequence of Non-receptor tyrosine-protein kinase TYK2 (P29597 whole entry): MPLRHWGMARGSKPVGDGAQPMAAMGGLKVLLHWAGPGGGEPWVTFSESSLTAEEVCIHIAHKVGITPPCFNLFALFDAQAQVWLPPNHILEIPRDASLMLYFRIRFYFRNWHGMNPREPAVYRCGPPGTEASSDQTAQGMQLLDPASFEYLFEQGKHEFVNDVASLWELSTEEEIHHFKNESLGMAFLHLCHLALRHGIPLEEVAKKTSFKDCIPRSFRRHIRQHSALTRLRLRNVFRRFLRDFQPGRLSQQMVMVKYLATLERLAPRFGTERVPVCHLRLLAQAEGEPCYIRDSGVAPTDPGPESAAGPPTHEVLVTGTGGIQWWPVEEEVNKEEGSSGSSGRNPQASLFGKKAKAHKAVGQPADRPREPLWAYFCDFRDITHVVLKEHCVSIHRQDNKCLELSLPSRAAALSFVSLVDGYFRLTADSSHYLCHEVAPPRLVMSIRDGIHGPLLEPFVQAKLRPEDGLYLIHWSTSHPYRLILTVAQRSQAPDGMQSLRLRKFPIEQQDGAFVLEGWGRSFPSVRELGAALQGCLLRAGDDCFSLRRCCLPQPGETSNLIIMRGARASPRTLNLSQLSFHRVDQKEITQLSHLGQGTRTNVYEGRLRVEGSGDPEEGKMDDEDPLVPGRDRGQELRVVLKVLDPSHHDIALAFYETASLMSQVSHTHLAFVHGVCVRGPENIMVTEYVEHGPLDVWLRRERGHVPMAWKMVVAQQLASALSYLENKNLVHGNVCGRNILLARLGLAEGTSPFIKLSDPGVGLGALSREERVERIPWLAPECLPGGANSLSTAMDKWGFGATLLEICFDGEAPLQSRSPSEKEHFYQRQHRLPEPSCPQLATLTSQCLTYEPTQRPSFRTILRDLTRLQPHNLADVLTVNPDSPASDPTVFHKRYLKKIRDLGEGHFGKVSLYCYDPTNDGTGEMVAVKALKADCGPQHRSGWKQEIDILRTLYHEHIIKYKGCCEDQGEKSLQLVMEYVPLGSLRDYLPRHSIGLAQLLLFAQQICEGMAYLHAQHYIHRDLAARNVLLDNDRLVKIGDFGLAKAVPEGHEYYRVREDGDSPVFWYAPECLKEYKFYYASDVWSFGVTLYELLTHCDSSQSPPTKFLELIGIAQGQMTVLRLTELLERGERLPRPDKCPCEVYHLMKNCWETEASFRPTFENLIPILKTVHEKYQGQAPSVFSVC

[8] = Ratio of unbound drug concentration in IL-23/IL-1beta induced C57BL/6J mouse plasma at 30 mg/kg, po to EC50 for JAK2 (unknown origin) assessed as inhibition of EPO-mediated STAT5 phosphorylation; assay type: organism-based; conditions: in vivo
[9] = Protein binding in rat plasma; assay type: ADME, cell-free; conditions: read-out: PPB (converted)
Mus musculus [10] = assay: Toxicity in IMQ-induced BALB/c mouse model assessed as reduction in platelet levels at 100 mg/kg, po bid for 5 days; assay type: organism-based; design: scale not given: the % may be the effect or the level left; conditions: in vivo, 120 h
[11] = target: Tyrosine-protein kinase JAK1 (Homo sapiens, UniProt P23458); assay: Inhibition of JAK1 (unknown origin)
Sequence of Tyrosine-protein kinase JAK1 (P23458 whole entry): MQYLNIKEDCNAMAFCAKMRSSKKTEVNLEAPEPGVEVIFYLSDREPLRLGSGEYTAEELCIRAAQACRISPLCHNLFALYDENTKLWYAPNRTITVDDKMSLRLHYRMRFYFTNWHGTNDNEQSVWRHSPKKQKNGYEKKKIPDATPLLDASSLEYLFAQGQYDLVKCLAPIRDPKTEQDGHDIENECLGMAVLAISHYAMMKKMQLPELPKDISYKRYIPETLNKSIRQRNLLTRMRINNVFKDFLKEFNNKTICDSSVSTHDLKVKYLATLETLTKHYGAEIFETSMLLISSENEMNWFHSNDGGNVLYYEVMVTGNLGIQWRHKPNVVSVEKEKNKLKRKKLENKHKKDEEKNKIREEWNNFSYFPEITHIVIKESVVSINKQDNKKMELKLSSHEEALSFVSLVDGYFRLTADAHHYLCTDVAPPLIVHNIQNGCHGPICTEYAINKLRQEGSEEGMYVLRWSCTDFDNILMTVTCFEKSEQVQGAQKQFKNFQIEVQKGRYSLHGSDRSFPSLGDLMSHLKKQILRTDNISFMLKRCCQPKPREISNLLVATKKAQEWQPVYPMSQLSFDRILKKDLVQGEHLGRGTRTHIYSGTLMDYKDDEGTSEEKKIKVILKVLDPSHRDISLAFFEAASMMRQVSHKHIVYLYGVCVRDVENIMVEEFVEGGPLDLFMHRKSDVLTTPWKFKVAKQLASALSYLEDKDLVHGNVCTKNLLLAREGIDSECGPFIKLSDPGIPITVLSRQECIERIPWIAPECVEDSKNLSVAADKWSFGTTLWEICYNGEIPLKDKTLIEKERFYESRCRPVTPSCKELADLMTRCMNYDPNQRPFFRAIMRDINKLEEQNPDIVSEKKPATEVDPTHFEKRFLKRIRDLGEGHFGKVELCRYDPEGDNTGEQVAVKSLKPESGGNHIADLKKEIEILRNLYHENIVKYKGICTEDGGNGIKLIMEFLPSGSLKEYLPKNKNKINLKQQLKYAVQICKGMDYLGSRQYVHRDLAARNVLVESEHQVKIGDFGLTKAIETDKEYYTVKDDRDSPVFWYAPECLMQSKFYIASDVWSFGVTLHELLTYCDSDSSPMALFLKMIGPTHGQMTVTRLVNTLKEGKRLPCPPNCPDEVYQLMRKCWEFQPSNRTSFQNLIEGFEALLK

Mus musculus [12] = assay: Antiinflammatory activity in IMQ-induced BALB/c mouse psoriasis model assessed as reduction in ear thickness at 30 mg/kg, po bid for 5 days meausred on day 6; assay type: functional; design: scale not given: the % may be the effect or the level left
[13] = Efflux ratio of permeability from basolateral to apical over apical to basolateral side in MDCK cells; assay type: ADME, cell-based, Canis lupus familiaris; conditions: dog
[14] = Permeability from apical side to basolateral side in MDCK cells; assay type: ADME, cell-based, Canis lupus familiaris; conditions: dog, read-out: permeability
[15] = Ratio of unbound drug concentration in IL-23/IL-1beta induced C57BL/6J mouse plasma at 100 mg/kg, po to EC50 for JAK2 (unknown origin) assessed as inhibition of EPO-mediated STAT5 phosphorylation; assay type: organism-based; conditions: in vivo
[16] = Ratio of unbound drug concentration in IL-23/IL-1beta induced C57BL/6J mouse plasma at 70 mg/kg, po to EC50 for JAK2 (unknown origin) assessed as inhibition of EPO-mediated STAT5 phosphorylation; assay type: organism-based; conditions: in vivo
Mus musculus [17] = assay: Antiinflammatory activity in IMQ-induced BALB/c mouse model assessed as reduction in serum IL-17F production at 100 mg/kg, po bid for 5 days; assay type: functional; design: scale not given: the % may be the effect or the level left
[18] = Clearance in rat; assay type: ADME; conditions: in vivo
[19] = target: Tyrosine-protein kinase JAK2 (Homo sapiens, UniProt O60674); assay: Inhibition of JAK2 (unknown origin) by biochemical assay
Sequence of Tyrosine-protein kinase JAK2 (O60674 whole entry): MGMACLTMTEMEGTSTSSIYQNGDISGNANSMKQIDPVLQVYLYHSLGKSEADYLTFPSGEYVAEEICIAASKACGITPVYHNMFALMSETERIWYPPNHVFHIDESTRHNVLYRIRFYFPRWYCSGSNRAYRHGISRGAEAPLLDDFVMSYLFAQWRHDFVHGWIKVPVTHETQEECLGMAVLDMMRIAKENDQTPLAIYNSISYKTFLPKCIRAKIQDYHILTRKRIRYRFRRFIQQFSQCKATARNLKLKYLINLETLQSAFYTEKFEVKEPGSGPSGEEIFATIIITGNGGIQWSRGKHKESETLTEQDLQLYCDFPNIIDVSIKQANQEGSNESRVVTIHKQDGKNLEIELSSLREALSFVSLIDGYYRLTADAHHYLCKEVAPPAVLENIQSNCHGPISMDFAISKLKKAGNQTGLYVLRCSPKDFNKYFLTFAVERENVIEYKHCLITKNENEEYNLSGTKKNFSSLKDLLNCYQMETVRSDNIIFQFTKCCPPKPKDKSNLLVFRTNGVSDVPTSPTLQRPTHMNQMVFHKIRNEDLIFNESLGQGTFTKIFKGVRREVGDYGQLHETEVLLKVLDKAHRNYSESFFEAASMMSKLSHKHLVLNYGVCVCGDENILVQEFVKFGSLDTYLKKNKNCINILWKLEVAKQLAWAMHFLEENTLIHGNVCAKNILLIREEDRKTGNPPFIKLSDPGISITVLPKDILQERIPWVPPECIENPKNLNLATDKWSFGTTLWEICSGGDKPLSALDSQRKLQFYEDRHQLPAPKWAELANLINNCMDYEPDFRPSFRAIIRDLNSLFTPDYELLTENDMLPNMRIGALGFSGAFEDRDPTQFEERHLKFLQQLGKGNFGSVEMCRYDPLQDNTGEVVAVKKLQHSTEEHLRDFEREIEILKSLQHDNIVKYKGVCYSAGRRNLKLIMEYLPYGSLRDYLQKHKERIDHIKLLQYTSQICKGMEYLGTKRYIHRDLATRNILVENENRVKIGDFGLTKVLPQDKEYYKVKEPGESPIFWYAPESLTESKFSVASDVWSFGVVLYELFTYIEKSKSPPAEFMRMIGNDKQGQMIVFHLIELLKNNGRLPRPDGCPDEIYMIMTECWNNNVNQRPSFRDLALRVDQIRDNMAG

Plasma = assay: Unbound drug concentration in IL-23/IL-1beta induced C57BL/6J mouse plasma at 70 mg/kg, po preincubated for 30 mins followed by cytokine addition measured after 3.5 hrs post dose; assay type: ADME, organism-based; conditions: in vivo
[20] = target: T1, Cyclin-dependent kinase 9; assay: Inhibition of CDK9 (unknown origin)
[21] = Ratio of unbound drug concentration in IL-23/IL-1beta induced C57BL/6J mouse plasma at 70 mg/kg, po to EC50 for TYK2 (unknown origin) assessed as inhibition of IL-23 induced STAT3 phosphorylation
Homo sapiens [22] = organism: Homo sapiens; assay: Selectivity ratio of Ki for JAK2 (unknown origin) to Ki for TYK2 (unknown origin)
Mus musculus [23] = assay: Antiinflammatory activity in IMQ-induced BALB/c mouse model assessed as reduction in serum IL-17F production administered po bid for 5 days; assay type: functional, organism-based
[24] = Protein binding in human plasma; assay type: ADME, cell-free; conditions: read-out: PPB (converted)
Mus musculus [25] = assay: Anti-inflammatory activity in IL-23/IL-1beta induced C57BL/6J mouse assessed as inhibition of IL-17F level in serum at 100 mg/kg, po pretreated for 30 mins followed by cytokine addition measured after 3 hrs by ELISA relative to control; assay type: functional
[26] = target: Substance-P receptor (Homo sapiens) (UniProt P25103); assay: Inhibition of NK1 (unknown origin) at 10 uM relative to control
Sequence of Substance-P receptor (Homo sapiens) (P25103 whole entry): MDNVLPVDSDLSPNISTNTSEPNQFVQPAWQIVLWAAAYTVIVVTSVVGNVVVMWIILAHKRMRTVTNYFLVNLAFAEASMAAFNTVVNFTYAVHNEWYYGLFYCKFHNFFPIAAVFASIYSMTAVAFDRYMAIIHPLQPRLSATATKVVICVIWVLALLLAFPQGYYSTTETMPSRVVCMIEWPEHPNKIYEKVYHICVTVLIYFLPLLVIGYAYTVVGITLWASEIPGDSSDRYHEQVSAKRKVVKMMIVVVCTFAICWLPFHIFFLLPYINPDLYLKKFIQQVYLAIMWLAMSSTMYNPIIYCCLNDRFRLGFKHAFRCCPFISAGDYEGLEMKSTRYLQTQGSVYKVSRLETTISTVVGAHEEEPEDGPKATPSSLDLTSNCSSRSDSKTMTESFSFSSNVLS

Mus musculus [27] = assay: Toxicity in IMQ-induced BALB/c mouse model assessed as reduction in platelet levels at 30 mg/kg, po bid for 5 days; assay type: organism-based; design: scale not given: the % may be the effect or the level left; conditions: in vivo, 120 h
[28] = Clearance in dog; assay type: ADME, Canis lupus familiaris; conditions: in vivo

T1 sequence (P50750 whole entry): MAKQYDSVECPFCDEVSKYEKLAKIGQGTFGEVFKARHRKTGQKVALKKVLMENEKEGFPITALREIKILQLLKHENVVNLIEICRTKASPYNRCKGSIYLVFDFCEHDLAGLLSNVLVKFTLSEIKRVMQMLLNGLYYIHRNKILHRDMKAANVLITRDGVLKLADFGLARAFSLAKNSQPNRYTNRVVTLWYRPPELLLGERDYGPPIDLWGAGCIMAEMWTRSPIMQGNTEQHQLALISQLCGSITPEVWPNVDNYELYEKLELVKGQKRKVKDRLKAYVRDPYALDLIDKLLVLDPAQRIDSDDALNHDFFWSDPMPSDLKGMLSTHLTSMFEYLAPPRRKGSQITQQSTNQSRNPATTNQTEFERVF

## Cc1cc(Nc2nccc3nc(-c4c(Cl)cc(C#N)cc4Cl)[nH]c23)ncn1
[1]
  Ratio: 13
[2]
  inhibition: > 50%
[3]
  Ki: 89 nM
[4]
  fraction unbound: 0.034
Homo sapiens [5]
  Ratio EC50: 21
Mus musculus [6]
  Activity: 74%
[7]
  Ki: 0.7 nM
[8]
  Ratio: 0.61
[9]
  fraction unbound: 0.039
Mus musculus [10]
  Activity: 54%
[11]
  Ki: 24 nM
Mus musculus [12]
  Activity: 20%
[13]
  efflux ratio: 1.1
[14]
  Papp A→B: 12.7 ×10⁻⁶ cm/s
[15]
  Ratio: 1.9
[16]
  Ratio: 1.1
Mus musculus [17]
  Activity: 99%
[18]
  clearance: 5.1 mL/min/kg
[19]
  Ki: 22 nM
Plasma
  Cp(f): 1500 nM
[20]
  Ki: 108 nM
[21]
  Ratio: 23
Homo sapiens [22]
  Ratio Ki: 31
Mus musculus [23]
  inhibition: Dose-dependent effect
[24]
  fraction unbound: 0.028
Mus musculus [25]
  inhibition in vivo at 100 mg/kg: 87%
[26]
  inhibition: 67%
Mus musculus [27]
  Activity: 21%
[28]
  clearance: 3.6 mL/min/kg
